Test results reported in ChEMBL document CHEMBL4390668, “Discovery and Structural Optimization of Acridones as Broad-Spectrum Antimalarials” (J Med Chem, 2019).
Active and inactive are the calls of the source. The rule behind the calls is not given here.

Assays:
[1] = Tmax in ICR mouse plasma at 80 mg/kg, po administered as single dose; assay type: ADME, organism-based; conditions: ICR, plasma, read-out: Tmax
[2] = Mean residence time in ICR mouse liver at 80 mg/kg, po administered as single dose; assay type: ADME, organism-based
[3] = Apparent volume of distribution in ICR mouse plasma at 80 mg/kg, po administered as single dose; assay type: ADME, organism-based; conditions: in vivo
[4] = Tmax in ICR mouse liver at 80 mg/kg, po administered as single dose; assay type: ADME, organism-based
[5] = tested on: Plasmodium falciparum; test: Antimalarial activity against drug-resistant Plasmodium falciparum 3D7 harboring A82T/V259L double mutant infected in human erythrocytes after 72 hrs by SYBR green 1-based fluorescence assay; assay type: functional, organism-based; conditions: 3D7, 72 h
[6] = tested on: Plasmodium falciparum; test: Antimalarial activity against Plasmodium falciparum 3D7 infected in human erythrocytes after 72 hrs by SYBR green 1-based fluorescence assay; assay type: functional, organism-based; conditions: 3D7, 72 h
[7] = tested on: Plasmodium falciparum; test: Inhibition of Plasmodium falciparum cytochrome b-c1
[8] = Selectivity index, ratio of IC50 for human HepG2 cells to IC50 for chloroquine-sensitive Plasmodium falciparum D6 infected in human erythrocytes; assay type: toxicity, cell-based; conditions: read-out: Ratio IC50
[9] = AUC (0 to infinity) in ICR mouse plasma at 80 mg/kg, po administered as single dose; assay type: ADME, organism-based; set-up: dose 80 mg/kg, route oral, time infinity; conditions: for AUC(0-inf): ICR, plasma
[10] = tested on: Plasmodium falciparum; test: Antimalarial activity against multidrug-resistant Plasmodium falciparum Dd2 infected in human erythrocytes by SYBR green 1-based fluorescence assay; assay type: functional, organism-based
[11] = Mean residence time in ICR mouse plasma at 80 mg/kg, po administered as single dose; assay type: ADME, organism-based
[12] = tested on: Plasmodium berghei; test: Antimalarial activity against luciferase-expressing Plasmodium berghei ANKA 676m1cl1 sporozoites infected in human HepG2A16 cells measured after 45 hrs by luciferase-luciferin based reporter assay; assay type: functional, organism-based; conditions: ANKA 676m1cl1, HepG2A16, 45 h
[13] = Cmax in ICR mouse liver at 80 mg/kg, po administered as single dose; assay type: ADME, organism-based; set-up: dose 80 mg/kg, route oral
[14] = Half life in mouse liver microsomes at 1 uM by LC-MS analysis; assay type: ADME, Microsome
[15] = tested on: Plasmodium falciparum; test: Antimalarial activity against drug-resistant Plasmodium falciparum Dd2 harboring V259L mutant infected in human erythrocytes after 72 hrs by SYBR green 1-based fluorescence assay; assay type: functional, organism-based; conditions: Dd2, 72 h
[16] = Cmax in ICR mouse plasma at 80 mg/kg, po administered as single dose; assay type: ADME, organism-based; set-up: dose 80 mg/kg, route oral; conditions: ICR, plasma, read-out: Cmax
[17] = tested on: HepG2; test: Cytotoxicity against human HepG2 cells measured after 24 to 36 hrs by resazurin dye based fluorescence assay; assay type: cell-based
[18] = AUC (0 to last) in ICR mouse plasma at 80 mg/kg, po administered as single dose; assay type: ADME, organism-based; set-up: dose 80 mg/kg, route oral, time 0 - last
[19] = tested on: Plasmodium falciparum; test: Antimalarial activity against chloroquine-sensitive Plasmodium falciparum D6 infected in human erythrocytes by SYBR green 1-based fluorescence assay; assay type: functional, organism-based
[20] = tested on: Plasmodium falciparum; test: Antimalarial activity against atovaquone-resistant Plasmodium falciparum Tm90-C2B infected in human erythrocytes by SYBR green 1-based fluorescence assay; assay type: functional, organism-based
[21] = AUC (0 to infinity) in ICR mouse liver at 80 mg/kg, po administered as single dose; assay type: ADME, organism-based; set-up: dose 80 mg/kg, route oral, time infinity
[22] = Apparent elimination half life in ICR mouse plasma at 80 mg/kg, po administered as single dose; assay type: ADME, organism-based; conditions: ICR, plasma, read-out: betat1/2(app) (converted)
[23] = tested on: Plasmodium falciparum; test: Antimalarial activity against drug-resistant Plasmodium falciparum Dd2 harboring M133I/A138T double mutant infected in human erythrocytes after 72 hrs by SYBR green 1-based fluorescence assay; assay type: functional, organism-based; conditions: Dd2, 72 h
[24] = Apparent clearance in ICR mouse plasma at 80 mg/kg, po administered as single dose; assay type: ADME, organism-based; conditions: read-out: CL(app) (converted)
[25] = tested on: Plasmodium yoelii; test: (§1) Antimalarial activity against blood stage Plasmodium yoelii MR4 MRA-428 infected in CF1 mouse assessed as suppression of parasitemia administered once daily via oral gavage for 4 days starting from 24 hrs post-infection and measured post-last dose by Giemsa-staining based microscopic analysis; assay type: functional
[26] = tested on: Plasmodium falciparum; test: Antimalarial activity against multidrug-resistant Plasmodium falciparum 7G8 infected in human erythrocytes by SYBR green 1-based fluorescence assay; assay type: functional, organism-based
[27] = tested on: Plasmodium berghei; test: (§2) Antimalarial activity against liver stage luciferase-expressing Plasmodium berghei ANKA 676m1cl1 sporozoites infected in C57BL/6 mouse assessed as suppression of parasitemia at 40 to 160 mg/kg, po pretreated for 1 day followed by parasite infection and subsequent compound dosing for 2 days measured at 24 to 48 hrs post-infection by luciferin-based real-time imaging analysis; assay type: functional
[28] = Half life in human liver microsomes at 1 uM by LC-MS analysis; assay type: ADME, Microsome
[29] = AUC (0 to last) in ICR mouse liver at 80 mg/kg, po administered as single dose; assay type: ADME, organism-based; set-up: dose 80 mg/kg, route oral, time 0 - last
[30] = Apparent elimination half life in ICR mouse liver at 80 mg/kg, po administered as single dose; assay type: ADME, organism-based; conditions: read-out: betat1/2(app) (converted)
[31] = tested on: Plasmodium berghei; test: as §2, with “blood” for “liver”, “10” for “40 to 160”, “up” for “at 24”, “30 days” for “48 hrs”, “YOYO1 staining based flow cytometry” for “luciferin-based real-time imaging analysis”; assay type: functional
[32] = Toxicity in CF1 mouse infected with blood stage Plasmodium yoelii MR4 MRA-428 assessed as clinical toxicity at 80 mg/kg, po administered once daily via gavage for 4 days starting from for 4 days starting from 24 hrs post-infection and measured daily during compound dosing; assay type: organism-based; conditions: in vivo
[33] = Toxicity in CF1 mouse infected with blood stage Plasmodium yoelii MR4 MRA-428 assessed as behavioral changes at 80 mg/kg, po administered once daily via gavage for 4 days starting from for 4 days starting from 24 hrs post-infection and measured daily during compound dosing; assay type: organism-based; conditions: in vivo
[34] = Mutagenicity in Salmonella typhimurium TA98 assessed as increase in revertant colonies up to 10 uM in presence of S9 fraction by Ames test; assay type: toxicity, subcellular; conditions: salmonella enterica subsp. enterica serovar typhimurium
[35] = Mutagenicity in Salmonella typhimurium TA98 assessed as increase in revertant colonies up to 10 uM in absence of S9 fraction by Ames test; assay type: toxicity; conditions: salmonella enterica subsp. enterica serovar typhimurium
[36] = Mutagenicity in Salmonella typhimurium TA100 assessed as increase in revertant colonies up to 10 uM in presence of S9 fraction by Ames test; assay type: toxicity, subcellular; conditions: salmonella enterica subsp. enterica serovar typhimurium
[37] = Mutagenicity in Salmonella typhimurium TA100 assessed as increase in revertant colonies up to 10 uM in absence of S9 fraction by Ames test; assay type: toxicity; conditions: salmonella enterica subsp. enterica serovar typhimurium
[38] = tested on: Plasmodium yoelii; test: as §1, with “parasitemia at 80 mg/kg, po” for “parasitemia”, “via” for “via oral”, “at weekly intervals for 28 days” for “post-last dose”; assay type: functional
[39] = target: hERG (KCNH2) (Homo sapiens, UniProt Q12809); test: Inhibition of human ERG expressed in CHOK1 cells at 10 uM by automated patch clamp method relative to control; assay type: cell-based; conditions: CHO-K1 cells that express hERG
[40] = tested on: Plasmodium berghei; test: as §2, with “10” for “40 to 160”; assay type: functional
[41] = Apparent volume of distribution in ICR mouse liver at 80 mg/kg, po administered as single dose; assay type: ADME, organism-based; conditions: in vivo
[42] = tested on: Plasmodium berghei; test: as §2, with “blood” for “liver”, “25” for “40 to 160”, “up” for “at 24”, “30 days” for “48 hrs”, “YOYO1 staining based flow cytometry” for “luciferin-based real-time imaging analysis”; assay type: functional

Chain of hERG (KCNH2) (Q12809 whole entry): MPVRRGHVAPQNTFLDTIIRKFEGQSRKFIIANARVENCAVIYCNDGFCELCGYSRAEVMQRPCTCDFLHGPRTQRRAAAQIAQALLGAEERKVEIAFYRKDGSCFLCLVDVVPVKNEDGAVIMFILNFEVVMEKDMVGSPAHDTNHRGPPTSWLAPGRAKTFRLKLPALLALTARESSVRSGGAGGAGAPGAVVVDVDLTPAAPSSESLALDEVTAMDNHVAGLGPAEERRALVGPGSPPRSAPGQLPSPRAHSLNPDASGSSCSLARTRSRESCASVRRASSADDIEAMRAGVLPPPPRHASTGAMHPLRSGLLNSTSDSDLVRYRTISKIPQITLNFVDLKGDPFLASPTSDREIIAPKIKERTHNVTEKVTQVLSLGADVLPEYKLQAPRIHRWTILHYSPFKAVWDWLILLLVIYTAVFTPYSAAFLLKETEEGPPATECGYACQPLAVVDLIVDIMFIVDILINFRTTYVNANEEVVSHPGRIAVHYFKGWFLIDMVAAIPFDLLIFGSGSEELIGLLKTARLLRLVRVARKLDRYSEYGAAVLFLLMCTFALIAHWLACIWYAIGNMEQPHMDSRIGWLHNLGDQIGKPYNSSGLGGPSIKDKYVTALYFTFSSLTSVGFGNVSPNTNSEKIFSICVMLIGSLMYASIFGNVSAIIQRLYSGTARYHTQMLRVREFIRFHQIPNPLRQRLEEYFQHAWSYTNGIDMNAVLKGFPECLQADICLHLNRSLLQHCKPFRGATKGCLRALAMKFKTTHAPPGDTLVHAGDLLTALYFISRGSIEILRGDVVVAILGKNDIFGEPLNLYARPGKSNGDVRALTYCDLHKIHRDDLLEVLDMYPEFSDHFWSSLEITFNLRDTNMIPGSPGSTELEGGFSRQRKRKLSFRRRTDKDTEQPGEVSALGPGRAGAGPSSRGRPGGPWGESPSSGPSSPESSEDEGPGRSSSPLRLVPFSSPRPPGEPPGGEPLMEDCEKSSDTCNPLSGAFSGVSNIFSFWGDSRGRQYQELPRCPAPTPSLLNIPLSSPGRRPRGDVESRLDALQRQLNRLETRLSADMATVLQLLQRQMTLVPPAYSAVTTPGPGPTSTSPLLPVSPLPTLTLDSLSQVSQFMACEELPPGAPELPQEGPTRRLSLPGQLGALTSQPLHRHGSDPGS

SMILES | Tmax [1] [h] | MRT [2] [h] | Vz [3] [L/kg] | Tmax [4] [h] | IC50 [5] [nM] | inhibition [7] | selectivity ratio [8] | AUC(0-inf) [9] [µg·h/mL] | IC50 [10] [nM] | MRT [11] [h] | IC50 [12] [nM] | Cmax [13] [ng/mL] | half-life at 1 µM [14] [h] | IC50 [15] [nM] | Cmax [16] [ng/mL] | IC50 [17] [nM] | AUC(0-t) [18] [µg·h/mL] | IC50 [19] [nM] | AUC(0-inf) [21] [µg·h/mL] | AUC(0-t) [29] [µg·h/mL] | other results
CCN(CC)CCOc1ccc2c(=O)c3ccc(Cl)cc3[nH]c2c1 | 2 | 5.59 | 37.689 | 1 | 1640 | inactive | 1140 | 5.81 | 41 to 117 | 3.41 | 113 | 193000 | > 1 | 2120 | 1360 | 36400 | 5.31 | 32 | 1460 | 1460 | IC50 [6]: 84 nM; IC50 [20]: 589 nM; half-life [22]: 1.9 h; IC50 [23]: 1070 nM; CL/F [24]: 230 mL/min/kg; ED50 [25]: 48 mg/kg.day; ED90 [25]: 72 mg/kg.day; IC50 [26]: 38 nM; Activity [27]: 100%; half-life at 1 µM [28]: > 1 h; half-life [30]: 6.7 h
CCCN(CCC)CCOc1ccc2c(=O)c3c(Cl)c(Cl)ccc3[nH]c2c1 | 5.5 | 6.07 | 58.684 | 7 | 79 | inactive | 245000 | 4.52 | 0.05 to 9 | 4.69 | 1.1 | 42300 | 0.283 | 216 | 631 | 41600 | 3.84 | 0.17 | 547 | 547 | Activity [31]: 100%; Activity [32]: Non-Toxic; IC50 [20]: 142 nM; Activity [33]: Non-Toxic; Activity [34]: Non-Toxic; half-life [22]: 2.29 h; IC50 [23]: 50 nM; CL/F [24]: 295 mL/min/kg; Activity [35]: Non-Toxic; Activity [36]: Non-Toxic; ED50 [25]: 1.04 mg/kg.day; ED90 [25]: 1.14 mg/kg.day; IC50 [26]: 0.3 nM; Activity [37]: Non-Toxic; Activity [38]: 100%; half-life at 1 µM [28]: 0.183 h; inhibition at 10 µM [39]: 25%; half-life [30]: 1.84 h; Activity [40]: 100%
COc1cc(NC(C)CCCN)c2ncccc2c1 (stereo not drawn) [PRIMAQUINE] | 0.5 | 4.5 | 43.801 | 0.5 |  |  |  |  |  | 2.3 |  | 8150 |  |  | 531 |  | 1.26 |  | 27.7 | 27.4 | AUC ([9]; in vivo): 1.314 µg·h/mL; Vz [41]: 4.418 L/kg; Activity [42]: 100%
